Experimental data taken from patent US8927246B2, “Method to increase the production of extracellular polymeric substances (EPS) in a Acidithiobacillus ferrooxidans culture by the inhibition of enzymes of tricarboxilic acid cycle” (Universidad de Chile, priority 2010, dated 2015).

Columns and labels:
[1] = tested on: Acidithiobacillus ferrooxidans strain Wenelen; assay: Batch culture of A. ferrooxidans Wenelen with FIC versus control: biomass and EPS production; type: cell-based; conditions: for [EPS] ajusted: fitted curve
Method: To compare biomass and EPS production in a Acidithiobacillus ferrooxidans, a culture with FIC and a control one, without FIC, were conducted.
Both cultures were carried in 1 L of a 9K medium described in Table 2, with the addition of 30 g/L of ferrous sulfate, with pH set at 1.8, agitation of 250 rpm and air flux of 1 VVM.
In both cultures, the same initial biomass concentration of 1*10^7 cell/mL was inoculated. In sample 1, 80 μM of FIC was added. Cultures were kept for 288 hours and EPS and biomass concentration was periodically measured. Afterwards, specific productivity of EPS was calculated.

Aconitase (EC 4.2.1.3) = conditions: cited from earlier work
[2] = 80 μM FIC, from hours 48 to 120

For fluoroisocitrate [FIC], the “amount of EPS per cell (pg EPS/cell) relative to control” value ([1]; 80 μM FIC, 192 hours) was 18 times, the “EPS yield (pg EPS/cell) relative to control sample” value ([1]; 80 μM FIC, at 120 hours of culture) was 2 times and the “biomass relative to control sample” value ([1]; 80 μM FIC, between 120 and 288 hours) was “lower by one magnitude order”. The “difference in growth rate or EPS production versus control sample” value ([1]; 80 μM FIC, first 48 hours) was “no significant differences”, the EPS production [1, 2] was “strong increase” and the biomass [1, 2] was “remains practically constant”. For the same substance, the “EPS” value ([1]; 80 μM FIC, time 0.0001 hours) was 28 mg/L, the “cel/ml (biomass concentration)” value ([1]; 80 μM FIC, time 0.0001 hours) was 4.69E+06 cel/ml and the “pg EPS/cel” value ([1]; 80 μM FIC, time 0.0001 hours) was 5.97 pg EPS/cel. For the same substance, the “[EPS] ajusted” value ([1]; 80 μM FIC, time 0.0001 hours) was 28.00 mg/L, the “EPS” value ([1]; 80 μM FIC, time 24 hours) was 33.5 mg/L and the “cel/ml (biomass concentration)” value ([1]; 80 μM FIC, time 24 hours) was 7.81E+06 cel/ml. For the same substance, the “pg EPS/cel” value ([1]; 80 μM FIC, time 24 hours) was 4.29 pg EPS/cel, the “[EPS] ajusted” value ([1]; 80 μM FIC, time 24 hours) was 36.49 mg/L and the “EPS” value ([1]; 80 μM FIC, time 48 hours) was 74 mg/L. The “cel/ml (biomass concentration)” value ([1]; 80 μM FIC, time 48 hours) was 6.66E+07 cel/ml, the “pg EPS/cel” value ([1]; 80 μM FIC, time 48 hours) was 1.11 pg EPS/cel and the “[EPS] ajusted” value ([1]; 80 μM FIC, time 48 hours) was 109.28 mg/L. The “EPS” value ([1]; 80 μM FIC, time 120 hours) was 341 mg/L, the “cel/ml (biomass concentration)” value ([1]; 80 μM FIC, time 120 hours) was 7.69E+07 cel/ml and the “pg EPS/cel” value ([1]; 80 μM FIC, time 120 hours) was 4.44 pg EPS/cel. The “[EPS] ajusted” value ([1]; 80 μM FIC, time 120 hours) was 306.36 mg/L, the “EPS” value ([1]; 80 μM FIC, time 144 hours) was 350 mg/L and the “cel/ml (biomass concentration)” value ([1]; 80 μM FIC, time 144 hours) was 4.16E+07 cel/ml. The “pg EPS/cel” value ([1]; 80 μM FIC, time 144 hours) was 8.42 pg EPS/cel, the “[EPS] ajusted” value ([1]; 80 μM FIC, time 144 hours) was 318.74 mg/L and the “EPS” value ([1]; 80 μM FIC, time 168 hours) was 372.5 mg/L. For the same substance, the “cel/ml (biomass concentration)” value ([1]; 80 μM FIC, time 168 hours) was 3.41E+07 cel/ml, the “pg EPS/cel” value ([1]; 80 μM FIC, time 168 hours) was 10.94 pg EPS/cel and the “[EPS] ajusted” value ([1]; 80 μM FIC, time 168 hours) was 324.73 mg/L. The “EPS” value ([1]; 80 μM FIC, time 192 hours) was 348.5 mg/L, the “cel/ml (biomass concentration)” value ([1]; 80 μM FIC, time 192 hours) was 1.41E+07 cel/ml and the “pg EPS/cel” value ([1]; 80 μM FIC, time 192 hours) was 24.78 pg EPS/cel. For the same substance, the “[EPS] ajusted” value ([1]; 80 μM FIC, time 192 hours) was 327.88 mg/L, the “EPS” value ([1]; 80 μM FIC, time 216 hours) was 315 mg/L and the “cel/ml (biomass concentration)” value ([1]; 80 μM FIC, time 216 hours) was 1.38E+07 cel/ml. For the same substance, the “pg EPS/cel” value ([1]; 80 μM FIC, time 216 hours) was 22.91 pg EPS/cel, the “[EPS] ajusted” value ([1]; 80 μM FIC, time 216 hours) was 329.65 mg/L and the “EPS” value ([1]; 80 μM FIC, time 288 hours) was 305 mg/L. The “cel/ml (biomass concentration)” value ([1]; 80 μM FIC, time 288 hours) was 1.94E+07 cel/ml, the “pg EPS/cel” value ([1]; 80 μM FIC, time 288 hours) was 15.74 pg EPS/cel and the “[EPS] ajusted” value ([1]; 80 μM FIC, time 288 hours) was 331.83 mg/L. For the same substance, the “effect on EPS and biomass production in culture” value ([1]; A. ferroxidans culture) was “enhanced EPS production in detriment of biomass production”, the “EPS specific productivity versus control” value ([1]; FIC cultures, after the first 30 hours) was “significant increase” and the “increase in EPS specific productivity versus control” value ([1]; FIC cultures, around the 50 hours of culture, exponential growth phase) was about 30%. The inhibition of aconitase (Aconitase (EC 4.2.1.3)) was “specifically inhibited”.
